Assay results reported in patent US20220176011A1, “SCAR REDUCING WOUND CLOSURE MATERIALS” (Lankenau Institute for Medical Research, priority 2019, published 2022).

System: HIF1a protein activity
Experiment: In vitro drug release from suture into DMEM medium, read out by HIF1a luciferase assay
Type: cell-based
Experimental: FIG. 1 is a graph plotting drug release in vitro from poly(lactic acid)/poly(lactic-co-glycolic acid (PLA/PLGA) sutures over time. Briefly, a mixture of PLA and PLA/GPLA suture was infused with 1,4-DPCA molecules during generation of the sutures. The concentration of DPCA was in all cases 5 mg/100 mg suture material as described below. The sutures, having different ratios of PLA and PLA/PLGA as described below, were tested for rate of drug release. Drug release was measured by HIF levels. The sutures were soaked in medium without serum for 24 hours and transferred to new medium for each timepoint identified on the graph. The medium was tested for HIF1a protein activity in a luciferase assay. The horizontal lines are controls as noted: at about 10000 luminescence units (LU) is a control for DMEM only; at about 18000 LU is a control for 25 μM DCPA; at about 29500 LU is a control for 50 μM DCPA; at about 39000 LU is a control for 100 μM DCPA; and at about 40500 LU is a control for 200 μM DCPA. The curve that is substantially at 10000 LU but dips below at day 12 represents a mixture of PLA and PLA/PLGA [50:50] at a ratio of 75 PLA:25 PLA/PLGA. The curve that starts below 10000 LU and increases to about 15000 LU at day 14.5 is PLA and PLA/PLGA [50:50] at a ratio of 75:25+DPCA. The curve that starts above 50000 and has a peak at day 15 above 40000 LU is PLA and PLA/PLGA[50:50] at a ratio of 50:50+DPCA. The curve that starts above 50000 LU and has a peak at day 7.5 at about 34000 LU represents PLA and PLA/PLGA [50:50] at a ratio of 75:25+DPCA.
A PLA/PGLA suture, infused with 1,4-DPCA molecules during generation of the sutures as described in Example 1 (i.e., materials are melted, DPCA added, and the final mixture cooled and pulled into sutures), was tested for rate of release of 1,4-DPCA into DMEM medium. Drug release was measured by HIF levels. The sutures were soaked in medium without serum for 24 hours and transferred to new medium for each timepoint (1 hour, 3 hours, Days 1, 2, 3, 6, 7, 8, 9, 10, 13, 14, 15, 16, 17 and 20). The medium was tested for HIF1a protein activity in a luciferase assay (Signosis, Inc) as described in ESKLA, K-L et al, Hypothermia augments stress response in mammalian cells. Free Radical Biology and Medicine, 2018 doi:10.1016/j.freeradbiomed.2018.04.571.
The results are shown in the graph at FIG. 1. The two heavy lines represented PLA/PLGA[50:50] 50:50+DPCA and PLA/PLGA[50:50] 75:25+DPCA are shown releasing the drug after one hour in the medium up to about 15 days in the medium after which the drug detection falls under the DMEM control.

## O=C(O)c1c[nH]c2c(ccc3cccnc32)c1=O [DCPA, 1,4-dihydrophenonthrolin-4-one-3-carboxylic acid]
25 μM free drug control
  luminescence (HIF1a luciferase assay), control line: about 18000 LU
50 μM free drug control
  luminescence (HIF1a luciferase assay), control line: about 29500 LU
100 μM free drug control
  luminescence (HIF1a luciferase assay), control line: about 39000 LU
200 μM free drug control
  luminescence (HIF1a luciferase assay), control line: about 40500 LU
